US10766914B2, “DNA alkylating agents” (OBI PHARMA, INC., priority 2015, dated 2020)
pIC50: −log10 of the molar value. Read-outs that look alike come from different tables or passages of the source.

Test system: H460 cells
Assay: Proliferation assay in H460 cells (2 hr exposure, AlamarBlue)
Format: cell-based, human
Conditions: wash, 70 hrs growth, read-out: IC 50 in proliferation assay in H460 cells
Procedure: In vitro proliferation data on the H460 […] human tumor cell line is reported above in the compound table.
Specifically, exponentially growing cells were seeded at a density of 4×10^3 cells per well in a 96 well plate and incubated at 37° C. in 5% CO2, 95% air and 100% relative humidity for 24 hours prior to addition of test compounds. Compounds were solubilized in 100% DMSO at 200 times the desired final test concentration. At the time of drug addition, compounds were further diluted to 4 times the desired final concentration with complete medium. Aliquots of 50 μl of compound at specified concentrations were added to microtiter wells already containing 150 μl of medium, resulting in the final drug concentration reported. After drug addition, the plates were incubated for an additional 2 hours at 37° C., 5% CO2, 95% air, and 100% relative humidity, then the drug was washed off and fresh medium was added and the plates were incubated for addition 70 hrs at 37° C., 5% CO2, 95% air and 100% relative humidity. At the end of this incubation, the viable cells were quantified using the AlamarBlue assay. The drug concentration resulting in growth inhibition of 50% (IC50) was calculated using Prism software (Irvine, Calif.), and the results were listed in the table.

[1] = Homo sapiens, NCI-H460, 2 hrs exposure

Row | SMILES | pIC50 [1] | pIC50 (2 hrs exposure)
1 | CC(OP(=O)(N1CC1)N1CC1)c1cc(Oc2ccccc2)c([N+](=O)[O-])cc1F (stereo not drawn) [Compound 2846] | 7.22 | 
2 | CCOC(=O)c1ccc(Oc2cc(C(C)OP(=O)(N3CC3)N3CC3)ccc2[N+](=O)[O-])cc1 (stereo not drawn) [Compound 2853] | > 8.30 | 
3 | CCOC(=O)c1cccc(Oc2cc(C(C)OP(=O)(N3CC3)N3CC3)ccc2[N+](=O)[O-])c1 (stereo not drawn) [Compound 2854] | > 8.30 | 
4 | CC(OP(=O)(N1CC1)N1CC1)c1ccc([N+](=O)[O-])c(Oc2cccc(N(C)C)c2)c1 (stereo not drawn) [Compound 2855] | 7.52 | 
5 | CC(OP(=O)(N1CC1)N1CC1)c1ccc([N+](=O)[O-])c(Oc2ccc(Cl)cc2)c1 (stereo not drawn) [Compound 2860] | 8.00 | 
6 | CC(OP(=O)(N1CC1)N1CC1)c1ccc([N+](=O)[O-])c(Oc2ccc(F)cc2)c1 (stereo not drawn) [Compound 2861] | 7.70 | 
7 | CC(OP(=O)(N1CC1)N1CC1)c1ccc([N+](=O)[O-])c(Oc2ccccc2Cl)c1 (stereo not drawn) [Compound 2862] | 7.40 | 
8 | CC(OP(=O)(N1CC1)N1CC1)c1ccc([N+](=O)[O-])c(Oc2ccc(F)cc2F)c1 (stereo not drawn) [Compound 2863] | 7.70 | 
9 | CC(OP(=O)(N1CC1)N1CC1)c1ccc([N+](=O)[O-])c(Oc2ccc(Cl)cc2Cl)c1 (stereo not drawn) [Compound 2864] | 7.70 | 
10 | CC(OP(=O)(N1CC1)N1CC1)c1ccc([N+](=O)[O-])c(Oc2ccccc2F)c1 (stereo not drawn) [Compound 2865] | 7.52 | 
11 | CC(OP(=O)(N1CC1)N1CC1)c1ccc([N+](=O)[O-])c(Oc2ccc3c(c2)OCO3)c1 (stereo not drawn) [Compound 2866] | 7.70 | 
12 | CC(OP(=O)(N1CC1)N1CC1)c1ccc([N+](=O)[O-])c(Oc2cccc(C(F)(F)F)c2)c1 (stereo not drawn) [Compound 2871] | 7.52 | 
13 | CC(OP(=O)(N1CC1)N1CC1)c1ccc([N+](=O)[O-])c(Oc2ccc(C#N)cc2)c1 (stereo not drawn) [Compound 2872] | 7.52 | 
14 | CC(OP(=O)(N1CC1)N1CC1)c1ccc([N+](=O)[O-])c(Oc2ccccn2)c1 (stereo not drawn) [Compound 2874] | 6.30 | 
15 | O=[N+]([O-])c1ccc(COP(=O)(N2CC2)N2CC2)cc1Oc1ccccn1 [Compound 2875] | 5.49 | 
16 | CCOC(=O)c1ccc(Oc2cc(COP(=O)(N3CC3)N3CC3)ccc2[N+](=O)[O-])cc1 [Compound 2876] | 8.52 | 
17 | O=[N+]([O-])c1ccc(COP(=O)(N2CC2)N2CC2)cc1Oc1cccnc1 [Compound 2877] | 7.70 | 
18 | CC(OP(=O)(N1CC1)N1CC1)c1ccc([N+](=O)[O-])c(Oc2nc3ccccc3s2)c1 (stereo not drawn) [Compound 2878] | 5.36 | 
19 | CC(OP(=O)(N1CC1)N1CC1)c1ccc([N+](=O)[O-])c(Oc2ccc(S(N)(=O)=O)cc2)c1 (stereo not drawn) [Compound 2880] | 7.00 | 
20 | CC(OP(=O)(N1CC1)N1CC1)c1ccc([N+](=O)[O-])c(Oc2ccc(S(=O)(=O)N(C)C)cc2)c1 (stereo not drawn) [Compound 2881] | 7.52 | 
21 | CNC(=O)c1cccc(Oc2cc(C(C)OP(=O)(N3CC3)N3CC3)ccc2[N+](=O)[O-])c1 (stereo not drawn) [Compound 2884] | 8.00 | 
22 | CC(OP(=O)(N1CC1)N1CC1)c1ccc([N+](=O)[O-])c(Oc2ccccc2C(=O)N(C)C)c1 (stereo not drawn) [Compound 2885] | 5.43 | 

Row | SMILES | pIC50 [1] | pIC50 (2 hrs exposure)
23 | NS(=O)(=O)c1ccc(Oc2cc(COP(=O)(N3CC3)N3CC3)ccc2[N+](=O)[O-])cc1 [Compound 2887] | 6.70 | 
24 | Cc1ccc(Oc2cc(C(C)OP(=O)(N3CC3)N3CC3)ccc2[N+](=O)[O-])cn1 (stereo not drawn) [Compound 2891] | 7.52 | 
25 | O=[N+]([O-])c1ccc(COP(=O)(N2CC2)N2CC2)cc1Oc1ccc(F)nc1 [Compound 2892] | 8.70 | 
26 | CC(OP(=O)(N1CC1)N1CC1)c1ccc([N+](=O)[O-])c(Oc2ccc(F)nc2)c1 (stereo not drawn) [Compound 2893] | 7.70 | 
27 | COc1ccc(Oc2cc(COP(=O)(N3CC3)N3CC3)ccc2[N+](=O)[O-])cc1 [Compound 2895] | 8.40 | 
28 | Nc1ccc(Oc2cc(COP(=O)(N3CC3)N3CC3)ccc2[N+](=O)[O-])cc1 [Compound 2896] | 7.00 | 
29 | CC(OP(=O)(N1CC1)N1CC1)c1ccc([N+](=O)[O-])c(Oc2ccc(-c3nccs3)cc2)c1 (stereo not drawn) [Compound 2898] | 8.00 | 
30 | O=[N+]([O-])c1ccc(COP(=O)(N2CC2)N2CC2)cc1Oc1ccc(-c2nccs2)cc1 [Compound 2899] | 8.40 | 
31 | CC(OP(=O)(N1CC1)N1CC1)c1ccc([N+](=O)[O-])c(Oc2ccc3ncsc3c2)c1 (stereo not drawn) [Compound 2900] | 7.40 | 
32 | CNS(=O)(=O)c1ccc(Oc2cc(C(C)OP(=O)(N3CC3)N3CC3)ccc2[N+](=O)[O-])cc1 (stereo not drawn) [Compound 2902] | 7.05 | 
33 | CNS(=O)(=O)c1ccc(Oc2cc(COP(=O)(N3CC3)N3CC3)ccc2[N+](=O)[O-])cc1 [Compound 2903] | 7.52 | 
34 | CC(OP(=O)(N1CC1)N1CC1)c1ccc([N+](=O)[O-])c(Oc2ccc(-c3ncco3)cc2)c1 (stereo not drawn) [Compound 2904] | 8.00 | 
35 | CC(OP(=O)(N1CC1)N1CC1)c1ccc(Oc2ccccc2)c([N+](=O)[O-])c1 (stereo not drawn) [Compound 2906, reference compound] | 5.40 | 
36 | CC(OP(=O)(N1CC1)N1CC1)c1ccc([N+](=O)[O-])c(Oc2ccc(C(=O)N(C)C)cc2)c1 (stereo not drawn) [Compound 2908] | 8.15 | 
37 | CNC(=O)c1ccc(Oc2cc(C(C)OP(=O)(N3CC3)N3CC3)ccc2[N+](=O)[O-])cc1 (stereo not drawn) [Compound 2909] | 8.00 | 
38 | CNC(=O)c1ccccc1Oc1cc(C(C)OP(=O)(N2CC2)N2CC2)ccc1[N+](=O)[O-] (stereo not drawn) [Compound 2910] | 5.46 | 
39 | CC(OP(=O)(N1CC1)N1CC1)c1ccc([N+](=O)[O-])c(Oc2ccc(NS(C)(=O)=O)cc2)c1 (stereo not drawn) [Compound 2912] | 7.40 | 
40 | CC(OP(=O)(N1CC1)N1CC1)c1ccc([N+](=O)[O-])c(Oc2ccc(NS(=O)(=O)C(F)(F)F)cc2)c1 (stereo not drawn) [Compound 2913] | 7.15 | 
41 | CC(OP(=O)(N1CC1)N1CC1)c1ccc([N+](=O)[O-])c(Oc2ccc3ocnc3c2)c1 (stereo not drawn) [Compound 2914] | 7.52 | 
42 | O=[N+]([O-])c1ccc(COP(=O)(N2CC2)N2CC2)cc1Oc1ccc2ocnc2c1 [Compound 2915] | 7.05 | 
43 | CC(OP(=O)(N1CC1)N1CC1)c1ccc([N+](=O)[O-])c(Oc2ccc(S(=O)(=O)Nc3ccc(F)cc3)cc2)c1 (stereo not drawn) [Compound 2916] | 6.92 | 
44 | CC(OP(=O)(N1CC1)N1CC1)c1ccc([N+](=O)[O-])c(Oc2ccc3cnn(C)c3c2)c1 (stereo not drawn) [Compound 2917] | 7.70 | 

Row | SMILES | pIC50 [1] | pIC50 (2 hrs exposure)
45 | Cn1ncc2ccc(Oc3cc(COP(=O)(N4CC4)N4CC4)ccc3[N+](=O)[O-])cc21 [Compound 2918] | 8.52 | 
46 | CC(OP(=O)(N1CC1)N1CC1)c1ccc([N+](=O)[O-])c(Oc2ccc3c(cnn3C)c2)c1 (stereo not drawn) [Compound 2919] | 8.40 | 
47 | CC(OP(=O)(N1CC1)N1CC1)c1ccc([N+](=O)[O-])c(Oc2ccc3c(c2)ncn3C)c1 (stereo not drawn) [Compound 2920] | 7.70 | 
48 | Cn1cnc2cc(Oc3cc(COP(=O)(N4CC4)N4CC4)ccc3[N+](=O)[O-])ccc21 [Compound 2921] | 8.15 | 
49 | CC(OP(=O)(N1CC1)N1CC1)c1ccc([N+](=O)[O-])c(Oc2cccc([N+](=O)[O-])c2)c1 (stereo not drawn) [Compound 2922] |  | 8.52
50 | CC(OP(=O)(N1CC1)N1CC1)c1ccc([N+](=O)[O-])c(Oc2ccc(C(N)=O)cc2)c1 (stereo not drawn) [Compound 2923] | 7.70 | 
51 | CC(OP(=O)(N1CC1)N1CC1)c1ccc([N+](=O)[O-])c(Oc2cccc(C(N)=O)c2)c1 (stereo not drawn) [Compound 2924] | 7.00 | 
52 | CC(OP(=O)(N1CC1)N1CC1)c1ccc([N+](=O)[O-])c(Oc2cncnc2)c1 (stereo not drawn) [Compound 2925] | 7.40 | 
53 | N#Cc1ccc(Oc2cc(COP(=O)(N3CC3)N3CC3)ccc2[N+](=O)[O-])cc1 [Compound 2927] | 8.52 | 
54 | Cc1nc2cc(Oc3cc(C(C)OP(=O)(N4CC4)N4CC4)ccc3[N+](=O)[O-])ccc2s1 (stereo not drawn) [Compound 2928] | 7.52 | 
55 | Cc1nc2cc(Oc3cc(COP(=O)(N4CC4)N4CC4)ccc3[N+](=O)[O-])ccc2s1 [Compound 2929] | 7.52 | 
56 | Cc1nc2ccc(Oc3cc(C(C)OP(=O)(N4CC4)N4CC4)ccc3[N+](=O)[O-])cc2s1 (stereo not drawn) [Compound 2930] | 8.70 | 
57 | CC(OP(=O)(N1CC1)N1CC1)c1ccc([N+](=O)[O-])c(Oc2c(F)cccc2F)c1 (stereo not drawn) [Compound 2932] | 7.70 | 
58 | CC(OP(=O)(N1CC1)N1CC1)c1ccc([N+](=O)[O-])c(Oc2cnc3cccnc3c2)c1 (stereo not drawn) [Compound 2933] | 7.00 | 
59 | O=[N+]([O-])c1ccc(Oc2cc(COP(=O)(N3CC3)N3CC3)ccc2[N+](=O)[O-])cc1 [Compound 2934] | 8.52 | 
60 | CC(OP(=O)(N1CC1)N1CC1)c1ccc([N+](=O)[O-])c(Oc2ccc([N+](=O)[O-])cc2)c1 (stereo not drawn) [Compound 2935] | 7.70 | 
61 | CNC(=O)c1cccc(Oc2cc(COP(=O)(N3CC3)N3CC3)ccc2[N+](=O)[O-])c1 [Compound 2937] | 8.70 | 
62 | CN(C)C(=O)c1ccccc1Oc1cc(COP(=O)(N2CC2)N2CC2)ccc1[N+](=O)[O-] [Compound 2938] | 5.60 | 
63 | CNC(=O)c1ccccc1Oc1cc(COP(=O)(N2CC2)N2CC2)ccc1[N+](=O)[O-] [Compound 2939] | 5.57 | 
64 | CNC(=O)c1ccc(Oc2cc(COP(=O)(N3CC3)N3CC3)ccc2[N+](=O)[O-])cc1 [Compound 2940] | 8.30 | 
65 | CN(C)C(=O)c1ccc(Oc2cc(COP(=O)(N3CC3)N3CC3)ccc2[N+](=O)[O-])cc1 [Compound 2941] | 8.40 | 
66 | CC(OP(=O)(N1CC1)N1CC1)c1ccc([N+](=O)[O-])c(Oc2cccc([N+](=O)[O-])c2)c1 (stereo not drawn) [Compound 2942] |  | 7.70
